Source: US9753034B2, “Process for the identification of a compound which inhibits the binding of the first bromodomain of each of human BRD-2, BRD-3, and BRD-4” (GLAXOSMITHKLINE LLC, priority 2009, dated 2017)

Assays:
[1] = molecular target: T1, Bromodomain BRD-2 (1-473) (Homo sapiens, UniProt P25440); assay: Fluorescence Anisotropy Binding Assay, BRD-2; settings: displacement of fluorescent ligand (Reference compound K) 5 nM, BRD-2 75 nM; read-out: pIC50 in the BRD-2 assay (converted)
T1 construct: Recombinant Human Bromodomains (BRD-2 (1-473), BRD-3 (1-435) and BRD-4 (1-477)); six-His tag (N); made in house; host or cells: E. coli (pET15b vector)
T1 sequence (P25440 1-473): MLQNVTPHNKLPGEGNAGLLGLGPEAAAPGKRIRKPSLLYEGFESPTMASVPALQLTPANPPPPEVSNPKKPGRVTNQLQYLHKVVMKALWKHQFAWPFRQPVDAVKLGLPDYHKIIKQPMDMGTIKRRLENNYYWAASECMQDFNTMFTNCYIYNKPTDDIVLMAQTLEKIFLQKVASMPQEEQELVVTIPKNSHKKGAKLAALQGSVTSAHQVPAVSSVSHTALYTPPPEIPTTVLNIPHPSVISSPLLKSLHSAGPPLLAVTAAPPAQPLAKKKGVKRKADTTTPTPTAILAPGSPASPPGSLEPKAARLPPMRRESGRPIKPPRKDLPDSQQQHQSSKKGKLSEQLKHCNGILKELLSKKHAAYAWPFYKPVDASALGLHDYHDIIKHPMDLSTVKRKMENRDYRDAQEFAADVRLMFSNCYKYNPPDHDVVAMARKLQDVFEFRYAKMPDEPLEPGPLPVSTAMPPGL
Description: (§1) Fluorescence Anisotropy Binding Assay
(§2) All data was normalized to the mean of 16 high and 16 low control wells on each plate. A four parameter curve fit of the following form was then applied: y=a+((b−a)/(1+(10^x/10^c)^d)
(§3) Where ‘a’ is the minimum, ‘b’ is the Hill slope, ‘c’ is the pIC50 and ‘d’ is the maximum.
(§4) The His-tagged Bromodomain was extracted from E. coli cells using 0.1 mg/ml lysozyme and sonication. […] Further purification was completed by Superdex 200 prep grade size exclusion column. Purified protein was stored at −80 C in 20 mM HEPES pH 7.5 and 100 mM NaCl.
(§5) 10 μl of this reaction mixture was added using a micro multidrop to wells containing 100 nl of various concentrations of test compound or DMSO vehicle (1% final) in Greiner 384 well Black low volume microtitre plate and equilibrated in dark 60 mins at room temperature.

[2] = molecular target: T2, Bromodomain BRD-3 (1-435) (Homo sapiens, UniProt Q15059); assay: Fluorescence Anisotropy Binding Assay, BRD-3; settings: displacement of fluorescent ligand (Reference compound K) 5 nM, BRD-3 75 nM; read-out: pIC50 in the BRD-3 assay (converted)
T2 construct: Recombinant Human Bromodomains (BRD-2 (1-473), BRD-3 (1-435) and BRD-4 (1-477)); six-His tag (N); made in house; host or cells: E. coli (pET15b vector)
T2 sequence (Q15059 1-435): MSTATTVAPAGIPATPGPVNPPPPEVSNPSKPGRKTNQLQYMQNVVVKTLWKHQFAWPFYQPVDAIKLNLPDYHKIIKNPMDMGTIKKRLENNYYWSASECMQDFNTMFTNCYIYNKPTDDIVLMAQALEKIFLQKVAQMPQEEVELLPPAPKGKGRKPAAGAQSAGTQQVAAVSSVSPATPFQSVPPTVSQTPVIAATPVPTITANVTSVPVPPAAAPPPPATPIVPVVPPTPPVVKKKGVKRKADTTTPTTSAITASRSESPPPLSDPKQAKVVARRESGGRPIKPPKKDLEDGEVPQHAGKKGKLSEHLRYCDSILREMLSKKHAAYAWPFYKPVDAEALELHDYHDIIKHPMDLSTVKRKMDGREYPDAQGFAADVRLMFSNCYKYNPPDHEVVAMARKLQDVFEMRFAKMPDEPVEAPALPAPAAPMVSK
Description: as §1, §2, §3, §4, §5

[3] = molecular target: Bromodomain BRD-4 (1-477) (Homo sapiens, UniProt O60885); assay: biochemical; settings: pIC50 in the BRD-4 assay, displacement of fluorescent ligand (Reference compound K) 5 nM, BRD-4 75 nM
Description: as §1, §2, §3, §4, §5

Row | IC50 [1] [µM] | IC50 [2] [µM] | IC50 [3] [µM] | SMILES
1 | ≤ 0.316 | ≤ 0.316 | – | CC(=O)N1c2ccc(-c3ccc(C(=O)O)cc3)cc2[C@H](Nc2ccc(Cl)cc2)C[C@@H]1C [Compound (II), 4-{(2S,4R)-1-acetyl-4-[(4-chlorophenyl)amino]-2-methyl-1,2,3,4-tetrahydro-6-quinolinyl}benzoic acid]
2 | ≤ 1 | ≤ 1 | ≤ 1 | CNCc1ccc(-c2ccc3c(c2)[C@H](NC(=O)OC(C)C)C[C@H](C)N3C(C)=O)cc1 [Compound (IV), 1-methylethyl ((2S,4R)-1-acetyl-2-methyl-6-{4-[(methylamino)methyl]pheny}-1,2,3,4-tetrahydro-4-quinolinyl)carbamate]
